Converted amounts (≈) assume the structure as drawn. Read-outs that look alike come from different tables or passages of the source. Blank lines part the entries; values can stand above or below the compound they belong to.
Tests used:
[1] = Amount of solubilizers needed to dissolve DBAB in water (synergy of cyclodextrin with other solubilizers); type: physicochemical; conditions: for solubility of the composition: 0.1% by weight DBAB
From the text: The synergistic effect of cyclodextrin as a solubilizer of the present invention in combination with other solubilizers (a second solubilizer and a third solubilizer) was investigated.

[2] = pH and solubility of HP-β-CD/DBAB compositions; type: physicochemical; conditions: HP-β-CD and DBAB mixed at a weight ratio of 1:1
From the text: In addition to investigation of the solubility improvement with varying pH, the solubility of the composition was investigated with varying the pH of the composition and the weight ratio of HP-β-CD and DBAB as shown in Table 3 below.

[3] = Solubility of DBAB achieved by solvents; type: physicochemical; conditions: organic solvent or mixture
melanin synthesis = conditions: background statement; verified through cell and artificial skin tests; cited from earlier work
MITF = conditions: through the cAMP-PKA-CREB signal pathway; background statement; cited from earlier work
[4] = Solubility of DBAB for each type of cyclodextrin and their 1:1 combinations (amount of CD required); type: physicochemical; conditions: single cyclodextrin or 1:1 weight ratio combination
Experimental: In order to investigate the solubility of one part by weight of DBAB for each type of cyclodextrin and the synergistic effect between cyclodextrins, the solubility of each of α-CD, γ-CD, HP-α-CD, HP-β-CD and HP-γ-CD and the solubility of their 1:1 weight ratio combinations was determined, as shown in Table 4 below.

[5] = Solubility of DBAB at various weight ratios of HP-β-CD and γ-CD, total CD 0.5%; conditions: 0.2% by weight of each of HP-β-CD and γ-CD, test method of Table 5
Experimental: In this case, 10% by weight of PEG.PPG-17.6 copolymer, 0.1% by weight of DBAB, 39.4% by weight of propanediol, 50% by weight of water and 0.5% by weight of the total CD were used.
In addition, the test method of Table 5 was carried out by using 0.2% by weight of each of HP-β-CD and γ-CD with an addition of 0.1% by weight of HP-α-CD, HP-γ-CD, α-CD or β-CD.

Compound: COc1cc(OC)c(C23CC4CC(CC(C4)C2)C3)cc1C(=O)NCc1ccc(O)cc1O [DBAB, 5-adamantan-1-yl-N-(2,4-dihydroxybenzyl)-2,4-dimethoxy-benzoic acid amide]
solubility of the composition ([1]; 30% by weight PEG.PPG-17.6 copolymer, 0.6% by weight HP-β-CD): transparently dissolved
solubility of the composition ([1]; 50% by weight PEG.PPG-17.6 copolymer, balance water): transparently dissolved
pH at which the composition has improved solubility [2]: ≥ 12.72
solubility ([3]; PEG.PPG-17.6 copolymer, read-out: solubility of DBAB achieved by PEG.PPG-17.6 copolymer): 81.3 mg/mL (≈ 186 mM)
solubility ([3]; propanediol, read-out: solubility of DBAB achieved by propanediol): 5.92 mg/mL (≈ 13.5 mM)
melanin synthesis (melanin synthesis): inhibiting melanin synthesis
expression of MITF (MITF): reduces the expression of MITF

Compound: OC[C@H]1O[C@@H]2O[C@H]3[C@H](O)[C@@H](O)[C@@H](O[C@H]4[C@H](O)[C@@H](O)[C@@H](O[C@H]5[C@H](O)[C@@H](O)[C@@H](O[C@H]6[C@H](O)[C@@H](O)[C@@H](O[C@H]7[C@H](O)[C@@H](O)[C@@H](O[C@H]1[C@H](O)[C@H]2O)O[C@@H]7CO)O[C@@H]6CO)O[C@@H]5CO)O[C@@H]4CO)O[C@@H]3CO [α, α-cyclodextrin]
amount of CD required (weight ratio CD:DBAB, x:1) to transparently dissolve one part by weight of DBAB [4]: >20
effect on solubility of DBAB of adding 0.1% by weight of a further cyclodextrin [5]: did not improve the solubility

Compound: hydroxypropyl-β-cyclodextrin [HP-β-CD]
PEG.PPG-17.6 copolymer replaced by 0.6% of HP-β-CD ([1]; composition comprising DBAB): 20%
PEG.PPG-17.6 copolymer replaced by 0.1% by weight of HP-β-CD ([1]; composition with 0.1% by weight of DBAB): 20 % by weight
amount of CD required (weight ratio CD:DBAB, x:1) to transparently dissolve one part by weight of DBAB [4]: 20

Next, values leading:

amount of CD required (weight ratio CD:DBAB, x:1) to transparently dissolve one part by weight of DBAB [4]: >20
effect on solubility of DBAB of adding 0.1% by weight of a further cyclodextrin [5]: did not improve the solubility
Compound: OC[C@H]1O[C@@H]2O[C@H]3[C@H](O)[C@@H](O)[C@@H](O[C@H]4[C@H](O)[C@@H](O)[C@@H](O[C@H]5[C@H](O)[C@@H](O)[C@@H](O[C@H]6[C@H](O)[C@@H](O)[C@@H](O[C@H]7[C@H](O)[C@@H](O)[C@@H](O[C@H]8[C@H](O)[C@@H](O)[C@@H](O[C@H]1[C@H](O)[C@H]2O)O[C@@H]8CO)O[C@@H]7CO)O[C@@H]6CO)O[C@@H]5CO)O[C@@H]4CO)O[C@@H]3CO [β, β-cyclodextrin]

amount of CD required (weight ratio CD:DBAB, x:1) to transparently dissolve one part by weight of DBAB [4]: >20
effect on solubility of DBAB of adding 0.1% by weight of a further cyclodextrin [5]: did not improve the solubility
Compound: hydroxypropyl-α-cyclodextrin [HPα]

amount of CD required (weight ratio CD:DBAB, x:1) to transparently dissolve one part by weight of DBAB [4]: >20
Compound: hydroxypropyl-γ-cyclodextrin [HPγ]

Reference: patent US11654094B2, “Composition comprising benzoic acid amide compound and cyclodextrin solubilizing agent” (AMOREPACIFIC CORPORATION, priority 2017, dated 2023)
